Measured values as given in ChEMBL document CHEMBL1201862, “PubChem BioAssay data set” (2004).
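Compound exposure: 48 hours, 5 concentrations, 96-well plates. Here, GI50 denotes the concentration required for 50% inhibition of growth.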 Active and inactive are the calls of the source. No stated cut-off is given here; in the data, active = GI50 up to about 1.1 µM and inactive = higher.

Experiments:
Experiment in all cases: NCI-60 cell line screen, 48 h
[1] = system: SR
[2] = system: NCI/ADR-RES
[3] = system: NCI-H460
[4] = system: DMS-273
[5] = system: OVCAR-3
[6] = system: RXF 631
[7] = system: CCRF-CEM
[8] = system: TK-10
[9] = system: XF498
[10] = system: COLO 205
[11] = system: SF-295
[12] = system: PC-3
[13] = system: RPMI-8226
[14] = system: SK-MEL-5
[15] = system: SW-620
[16] = system: MDA-MB-435
[17] = system: SF-539
[18] = system: KM-20L2
[19] = system: A549
[20] = system: HOP-62
[21] = system: A498
[22] = system: OVCAR-5
[23] = system: UACC-62
[24] = system: LXFL 529
[25] = system: K562
[26] = system: HCT-116
[27] = system: HL-60
[28] = system: EKVX
[29] = system: Hs-578T
[30] = system: OVCAR-4
[31] = system: LOX IMVI
[32] = system: CAKI-1
[33] = system: SK-MEL-28
[34] = system: DMS-114
[35] = system: HCC 2998
[36] = system: HOP-92
[37] = system: MCF7
[38] = system: SNB-75
[39] = system: MOLT-4
[40] = system: SN12C
[41] = system: BT-549
[42] = system: HOP-18
[43] = system: SK-OV-3
[44] = system: UO-31
[45] = system: MDA-MB-231
[46] = system: DLD-1
[47] = system: UACC-257
[48] = system: HT-29
[49] = system: OVCAR-8
[50] = system: M14
[51] = system: DU-145
[52] = system: NCI-H23
[53] = system: NCI-H226
[54] = system: NCI-H522
[55] = system: ACHN
[56] = system: SNB-19
[57] = system: 786-0
[58] = system: M19-MEL
[59] = system: RXF 393
[60] = system: Malme-3M
[61] = system: U-251
[62] = system: HCT-15
[63] = system: MDA-N
[64] = system: SNB-78

COc1ccc(/C=C\c2cc(OC)c(OC)c(OC)c2)cc1OC(=O)NCCN(C)C
GI50 [1]: 0.154 nM (active) | GI50 [2]: < 0.1 nM (active) | GI50 [3]: 0.125 nM (active) | GI50 [4]: < 0.1 nM (active) | GI50 [5]: 0.107 nM (active) | GI50 [6]: 0.196 nM (active) | GI50 [7]: 0.133 nM (active) | GI50 [8]: 297 nM (active) | GI50 [9]: < 0.1 nM (active) | GI50 [10]: 215 nM (active) | GI50 [11]: 0.119 nM (active) | GI50 [12]: 0.152 nM (active) | GI50 [13]: 0.14 nM (active) | GI50 [14]: < 0.1 nM (active) | GI50 [15]: < 0.1 nM (active) | GI50 [16]: < 0.1 nM (active) | GI50 [17]: 0.133 nM (active) | GI50 [18]: 136 nM (active) | GI50 [19]: 1.87 nM (active) | GI50 [20]: 0.151 nM (active) | GI50 [21]: 0.269 nM (active) | GI50 [22]: 7.64 nM (active) | GI50 [23]: < 0.1 nM (active) | GI50 [24]: < 0.1 nM (active) | GI50 [25]: < 0.1 nM (active) | GI50 [26]: < 0.1 nM (active) | GI50 [27]: < 0.1 nM (active) | GI50 [28]: < 24.7 nM (active) | GI50 [29]: 0.137 nM (active) | GI50 [30]: 1.44 nM (active) | GI50 [31]: 0.147 nM (active) | GI50 [32]: 38.6 nM (active) | GI50 [33]: 11800 nM (inactive) | GI50 [34]: < 0.1 nM (active) | GI50 [35]: 63.1 nM (active) | GI50 [36]: < 0.1 nM (active) | GI50 [37]: 3.34 nM (active) | GI50 [38]: 0.215 nM (active) | GI50 [39]: 0.145 nM (active) | GI50 [40]: 0.244 nM (active) | GI50 [41]: 830 nM (active) | GI50 [42]: 16800 nM (inactive) | GI50 [43]: 3.39 nM (active) | GI50 [44]: 4.11 nM (active) | GI50 [45]: 10 nM (active) | GI50 [46]: < 0.1 nM (active) | GI50 [47]: 8.39 nM (active) | GI50 [48]: 526 nM (active) | GI50 [49]: 0.143 nM (active) | GI50 [50]: 0.156 nM (active) | GI50 [51]: 0.307 nM (active) | GI50 [52]: 0.121 nM (active) | GI50 [53]: 6.4 nM (active) | GI50 [54]: 0.119 nM (active) | GI50 [55]: 0.659 nM (active) | GI50 [56]: 0.178 nM (active) | GI50 [57]: 1.61 nM (active) | GI50 [58]: < 0.1 nM (active) | GI50 [59]: < 0.1 nM (active) | GI50 [60]: 2.84 nM (active) | GI50 [61]: 0.125 nM (active) | GI50 [62]: 0.132 nM | GI50 [63]: < 0.1 nM (active) | GI50 [64]: < 0.1 nM (active)
